Holding throughout (test): Kinase panel profiling at 1 µmol/L (mobility shift assay, Carna)
Common to all, as to assay type: biochemical
What all share (conditions): 1 µmol/L of BTK inhibitor

The target of one assay is T1, SRPK2 (Homo sapiens, UniProt P78362).
T1 construct: purchased Carna Biosciences

A further assay concerns the target T2, HIPK1 (Homo sapiens, UniProt Q86Z02).
T2 construct: purchased Carna Biosciences

In a further assay the target is T3, TXK (Homo sapiens, UniProt P42681).
T3 construct: purchased Carna Biosciences
T3 sequence (P42681 1-527): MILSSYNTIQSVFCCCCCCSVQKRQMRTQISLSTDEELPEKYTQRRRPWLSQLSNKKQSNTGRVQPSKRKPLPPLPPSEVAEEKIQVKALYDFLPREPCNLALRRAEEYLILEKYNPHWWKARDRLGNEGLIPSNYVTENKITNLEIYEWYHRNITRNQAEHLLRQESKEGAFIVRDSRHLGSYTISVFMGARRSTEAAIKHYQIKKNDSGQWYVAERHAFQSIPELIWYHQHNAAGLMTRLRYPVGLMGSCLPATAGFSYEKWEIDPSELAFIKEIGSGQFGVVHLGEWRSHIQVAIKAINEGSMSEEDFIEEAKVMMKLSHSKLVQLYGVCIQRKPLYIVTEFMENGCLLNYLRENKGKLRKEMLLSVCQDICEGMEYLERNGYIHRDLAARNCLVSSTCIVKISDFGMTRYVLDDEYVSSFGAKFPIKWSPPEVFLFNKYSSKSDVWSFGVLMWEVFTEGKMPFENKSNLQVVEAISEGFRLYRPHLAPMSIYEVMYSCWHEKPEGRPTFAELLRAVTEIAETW

For a further assay, the target named is T4, CaMK2α (Homo sapiens, UniProt Q9UQM7).
T4 construct: purchased Carna Biosciences
T4 sequence (Q9UQM7 whole entry): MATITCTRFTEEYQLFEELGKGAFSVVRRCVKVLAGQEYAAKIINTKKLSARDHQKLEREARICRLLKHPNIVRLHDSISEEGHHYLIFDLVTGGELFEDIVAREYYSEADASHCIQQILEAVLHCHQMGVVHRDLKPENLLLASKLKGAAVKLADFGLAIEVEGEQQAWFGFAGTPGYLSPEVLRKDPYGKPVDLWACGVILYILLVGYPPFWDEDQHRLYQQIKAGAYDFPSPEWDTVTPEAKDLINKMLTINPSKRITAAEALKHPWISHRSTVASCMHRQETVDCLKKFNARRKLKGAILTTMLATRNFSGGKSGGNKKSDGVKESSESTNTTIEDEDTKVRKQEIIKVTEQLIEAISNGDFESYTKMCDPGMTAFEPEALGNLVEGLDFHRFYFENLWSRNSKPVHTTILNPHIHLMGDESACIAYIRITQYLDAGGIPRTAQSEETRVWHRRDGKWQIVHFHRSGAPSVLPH

A further assay addresses T5, NEK6 (Homo sapiens, UniProt Q9HC98).
T5 construct: purchased Carna Biosciences

A further assay deals with T6, PKCζ (Homo sapiens, UniProt Q05513).
T6 construct: purchased Carna Biosciences
T6 sequence (Q05513 1-592): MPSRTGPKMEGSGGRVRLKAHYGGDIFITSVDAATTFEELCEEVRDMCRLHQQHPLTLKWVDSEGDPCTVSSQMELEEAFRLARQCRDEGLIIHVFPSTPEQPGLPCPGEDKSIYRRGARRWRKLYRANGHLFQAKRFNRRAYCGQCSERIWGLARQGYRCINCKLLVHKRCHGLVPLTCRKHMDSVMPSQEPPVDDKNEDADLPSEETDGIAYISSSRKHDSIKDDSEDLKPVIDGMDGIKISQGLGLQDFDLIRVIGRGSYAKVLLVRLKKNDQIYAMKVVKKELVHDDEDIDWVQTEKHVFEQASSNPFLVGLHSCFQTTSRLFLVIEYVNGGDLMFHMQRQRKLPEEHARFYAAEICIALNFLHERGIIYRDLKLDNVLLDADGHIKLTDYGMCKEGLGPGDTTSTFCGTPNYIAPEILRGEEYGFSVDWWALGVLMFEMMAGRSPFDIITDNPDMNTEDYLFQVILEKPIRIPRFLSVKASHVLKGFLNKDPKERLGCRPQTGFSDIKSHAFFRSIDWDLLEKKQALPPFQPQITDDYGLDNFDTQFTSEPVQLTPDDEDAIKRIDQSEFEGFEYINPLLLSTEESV

The target in the next assay is T7, CDC2/CycB1 (Homo sapiens, UniProt P06493).
T7 construct: purchased Carna Biosciences

In another assay the target is T8, CRIK (Homo sapiens, UniProt O14578).
T8 construct: purchased Carna Biosciences
T8 sequence (O14578 whole entry): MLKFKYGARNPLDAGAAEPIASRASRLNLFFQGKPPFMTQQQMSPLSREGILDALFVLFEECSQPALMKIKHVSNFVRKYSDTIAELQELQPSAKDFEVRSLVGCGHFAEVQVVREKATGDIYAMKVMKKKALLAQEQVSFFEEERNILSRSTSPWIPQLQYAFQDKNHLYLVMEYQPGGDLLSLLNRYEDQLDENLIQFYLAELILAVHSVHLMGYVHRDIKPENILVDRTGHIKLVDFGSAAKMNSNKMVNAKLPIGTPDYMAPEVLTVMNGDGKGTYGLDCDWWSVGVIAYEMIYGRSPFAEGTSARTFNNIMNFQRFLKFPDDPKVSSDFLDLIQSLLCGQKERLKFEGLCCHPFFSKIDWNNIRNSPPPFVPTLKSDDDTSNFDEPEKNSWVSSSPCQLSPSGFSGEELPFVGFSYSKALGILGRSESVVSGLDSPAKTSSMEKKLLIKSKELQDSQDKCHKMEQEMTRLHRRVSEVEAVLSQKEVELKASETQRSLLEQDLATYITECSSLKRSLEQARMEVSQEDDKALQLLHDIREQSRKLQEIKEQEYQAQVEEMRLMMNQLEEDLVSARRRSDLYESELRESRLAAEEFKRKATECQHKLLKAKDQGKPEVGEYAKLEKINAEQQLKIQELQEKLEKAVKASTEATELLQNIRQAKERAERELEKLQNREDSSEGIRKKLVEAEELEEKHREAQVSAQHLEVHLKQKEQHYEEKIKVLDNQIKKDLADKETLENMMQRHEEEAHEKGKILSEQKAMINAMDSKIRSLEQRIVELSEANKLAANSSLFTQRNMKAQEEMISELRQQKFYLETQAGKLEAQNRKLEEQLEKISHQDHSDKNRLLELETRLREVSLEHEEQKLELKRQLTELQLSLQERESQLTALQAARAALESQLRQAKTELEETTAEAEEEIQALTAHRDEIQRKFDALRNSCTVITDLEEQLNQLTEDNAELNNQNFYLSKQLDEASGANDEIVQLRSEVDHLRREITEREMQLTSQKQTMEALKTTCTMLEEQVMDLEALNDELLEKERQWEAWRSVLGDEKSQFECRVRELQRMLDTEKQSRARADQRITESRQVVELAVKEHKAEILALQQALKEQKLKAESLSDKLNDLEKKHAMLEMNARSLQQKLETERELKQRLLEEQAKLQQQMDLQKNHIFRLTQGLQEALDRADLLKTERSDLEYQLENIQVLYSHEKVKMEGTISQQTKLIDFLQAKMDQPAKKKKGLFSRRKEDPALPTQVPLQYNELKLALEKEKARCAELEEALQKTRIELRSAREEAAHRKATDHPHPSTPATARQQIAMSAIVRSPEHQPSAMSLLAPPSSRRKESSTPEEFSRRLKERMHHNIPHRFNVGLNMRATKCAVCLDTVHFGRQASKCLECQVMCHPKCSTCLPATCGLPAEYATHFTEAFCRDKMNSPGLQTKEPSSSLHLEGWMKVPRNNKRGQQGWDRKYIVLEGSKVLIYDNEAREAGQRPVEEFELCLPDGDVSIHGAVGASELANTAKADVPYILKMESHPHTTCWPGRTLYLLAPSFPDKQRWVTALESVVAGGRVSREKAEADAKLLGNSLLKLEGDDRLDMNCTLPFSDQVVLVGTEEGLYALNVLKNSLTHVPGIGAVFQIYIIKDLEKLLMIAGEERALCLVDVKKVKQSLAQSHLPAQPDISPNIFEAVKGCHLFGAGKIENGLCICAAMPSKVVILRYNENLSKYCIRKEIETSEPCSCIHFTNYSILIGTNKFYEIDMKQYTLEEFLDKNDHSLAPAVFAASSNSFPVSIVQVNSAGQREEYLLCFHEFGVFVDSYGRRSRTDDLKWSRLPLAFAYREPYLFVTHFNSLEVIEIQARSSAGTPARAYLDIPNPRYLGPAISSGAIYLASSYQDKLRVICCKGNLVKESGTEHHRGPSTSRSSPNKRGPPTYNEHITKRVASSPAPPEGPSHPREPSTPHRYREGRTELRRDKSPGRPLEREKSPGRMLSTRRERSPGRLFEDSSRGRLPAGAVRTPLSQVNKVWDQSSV

A further assay deals with T9, PKD3 (Homo sapiens, UniProt O94806).
T9 construct: purchased Carna Biosciences
T9 sequence (O94806 1-890): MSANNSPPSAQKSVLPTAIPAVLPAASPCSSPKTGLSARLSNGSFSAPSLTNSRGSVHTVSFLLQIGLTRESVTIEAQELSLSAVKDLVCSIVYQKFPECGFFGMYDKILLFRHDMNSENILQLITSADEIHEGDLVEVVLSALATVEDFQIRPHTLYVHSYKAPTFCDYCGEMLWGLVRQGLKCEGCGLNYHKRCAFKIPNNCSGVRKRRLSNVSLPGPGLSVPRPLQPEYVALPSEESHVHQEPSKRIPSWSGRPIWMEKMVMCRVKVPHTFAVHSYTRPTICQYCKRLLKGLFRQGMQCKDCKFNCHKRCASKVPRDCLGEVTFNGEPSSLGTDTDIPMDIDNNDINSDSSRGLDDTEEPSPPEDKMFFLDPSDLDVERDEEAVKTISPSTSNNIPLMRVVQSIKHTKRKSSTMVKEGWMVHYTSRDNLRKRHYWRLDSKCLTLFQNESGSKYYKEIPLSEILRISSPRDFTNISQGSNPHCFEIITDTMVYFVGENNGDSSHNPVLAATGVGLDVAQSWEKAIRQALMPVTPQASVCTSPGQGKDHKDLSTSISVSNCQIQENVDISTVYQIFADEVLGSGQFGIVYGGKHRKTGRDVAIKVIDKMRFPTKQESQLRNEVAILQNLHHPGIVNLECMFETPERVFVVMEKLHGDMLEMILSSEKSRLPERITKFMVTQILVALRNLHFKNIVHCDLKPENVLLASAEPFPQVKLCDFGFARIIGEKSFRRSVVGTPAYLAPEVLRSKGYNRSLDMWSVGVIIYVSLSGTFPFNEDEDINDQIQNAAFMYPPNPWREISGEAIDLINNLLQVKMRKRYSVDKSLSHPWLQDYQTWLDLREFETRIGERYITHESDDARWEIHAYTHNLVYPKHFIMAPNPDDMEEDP

Another assay addresses T10, MRCKβ (Homo sapiens, UniProt Q9Y5S2).
T10 construct: purchased Carna Biosciences

Another assay concerns the target T11, PYK2 (Homo sapiens, UniProt Q14289).
T11 construct: purchased Carna Biosciences

T10 sequence (Q9Y5S2 whole entry): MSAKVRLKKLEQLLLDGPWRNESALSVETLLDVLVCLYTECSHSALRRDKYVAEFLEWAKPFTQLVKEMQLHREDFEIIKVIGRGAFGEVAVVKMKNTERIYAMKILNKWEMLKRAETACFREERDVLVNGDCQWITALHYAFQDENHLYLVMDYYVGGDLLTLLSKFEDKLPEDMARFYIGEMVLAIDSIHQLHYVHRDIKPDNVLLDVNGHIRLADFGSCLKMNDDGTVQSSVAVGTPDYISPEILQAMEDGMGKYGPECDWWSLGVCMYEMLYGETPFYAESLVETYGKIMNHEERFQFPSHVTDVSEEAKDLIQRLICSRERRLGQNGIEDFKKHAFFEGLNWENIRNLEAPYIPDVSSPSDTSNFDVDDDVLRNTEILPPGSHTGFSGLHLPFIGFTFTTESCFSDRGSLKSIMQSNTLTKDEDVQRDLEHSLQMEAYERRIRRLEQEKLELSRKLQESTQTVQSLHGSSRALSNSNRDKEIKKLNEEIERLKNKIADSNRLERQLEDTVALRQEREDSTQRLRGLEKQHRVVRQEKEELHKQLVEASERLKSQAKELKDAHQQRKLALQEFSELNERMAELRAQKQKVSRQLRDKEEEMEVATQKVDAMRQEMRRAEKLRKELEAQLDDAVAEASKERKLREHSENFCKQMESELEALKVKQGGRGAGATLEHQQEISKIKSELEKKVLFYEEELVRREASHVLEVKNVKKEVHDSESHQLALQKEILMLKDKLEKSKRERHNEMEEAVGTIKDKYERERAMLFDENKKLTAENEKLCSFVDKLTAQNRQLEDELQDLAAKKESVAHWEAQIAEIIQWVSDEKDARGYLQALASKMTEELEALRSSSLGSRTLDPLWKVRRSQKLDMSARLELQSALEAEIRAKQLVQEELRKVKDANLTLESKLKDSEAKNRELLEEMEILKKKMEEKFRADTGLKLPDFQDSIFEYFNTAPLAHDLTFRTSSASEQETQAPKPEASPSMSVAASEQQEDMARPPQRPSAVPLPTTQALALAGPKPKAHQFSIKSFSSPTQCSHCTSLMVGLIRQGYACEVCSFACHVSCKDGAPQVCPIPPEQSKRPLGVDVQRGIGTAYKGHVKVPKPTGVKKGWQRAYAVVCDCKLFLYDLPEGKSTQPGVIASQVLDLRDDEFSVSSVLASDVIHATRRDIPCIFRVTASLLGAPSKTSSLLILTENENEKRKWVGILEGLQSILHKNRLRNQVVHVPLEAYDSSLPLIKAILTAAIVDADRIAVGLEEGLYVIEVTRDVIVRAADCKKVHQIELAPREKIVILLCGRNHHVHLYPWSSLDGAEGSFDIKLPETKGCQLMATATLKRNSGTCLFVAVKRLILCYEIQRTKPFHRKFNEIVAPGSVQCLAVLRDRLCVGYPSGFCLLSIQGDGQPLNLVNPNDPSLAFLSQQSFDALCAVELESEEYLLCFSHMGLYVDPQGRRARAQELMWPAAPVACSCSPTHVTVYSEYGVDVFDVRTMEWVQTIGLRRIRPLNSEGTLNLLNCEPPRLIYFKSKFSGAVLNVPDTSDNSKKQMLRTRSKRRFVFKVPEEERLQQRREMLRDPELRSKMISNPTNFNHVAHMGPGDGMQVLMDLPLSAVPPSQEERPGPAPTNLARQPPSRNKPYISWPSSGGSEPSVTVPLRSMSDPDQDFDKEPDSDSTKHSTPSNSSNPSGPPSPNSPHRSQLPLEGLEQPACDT
T5 sequence (Q9HC98 whole entry): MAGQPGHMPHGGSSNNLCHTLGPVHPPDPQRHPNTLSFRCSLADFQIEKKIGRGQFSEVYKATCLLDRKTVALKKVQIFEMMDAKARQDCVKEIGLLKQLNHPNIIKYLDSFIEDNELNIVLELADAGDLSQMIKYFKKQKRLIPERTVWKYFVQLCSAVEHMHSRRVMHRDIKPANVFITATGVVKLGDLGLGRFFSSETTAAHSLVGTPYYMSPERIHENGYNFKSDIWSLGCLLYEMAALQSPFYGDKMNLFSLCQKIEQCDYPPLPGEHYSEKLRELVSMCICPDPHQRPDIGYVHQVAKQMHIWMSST

On to `CC#CC(=O)N1CCC[C@H]1c1nc(-c2ccc(C(=O)Nc3ccccn3)cc2)c2c(N)nccn12` [acalabrutinib], for which the “Percentage inhibition of kinase enzyme activity” value (“Percentage inhibition” below) at SRPK2 was 0.69%; at HIPK1 it was -14.56%; on TXK, 67.66%; at CaMK2α, -3.43%; at NEK6 it was -5.54%; at PKCζ it was -5.44%. Moreover, the “Percentage inhibition” value at CDC2/CycB1 is recorded as -0.40%; at CRIK it was -5.14%; at PKD3, -2.07%; at MRCKβ, -15.91%; on PYK2, -3.55%.

As for `COc1ccc(F)cc1C(=O)NCc1ccc(-c2nn([C@@H](C)C(F)(F)F)c(N)c2C(N)=O)cc1` [pirtobrutinib], the “Percentage inhibition” value on SRPK2 was -2.34%; on HIPK1, 2.97%; at TXK, 43.03%; at CaMK2α it was -0.99%; at NEK6, -2.92%; on PKCζ, -3.38%. Also, the “Percentage inhibition” value on CDC2/CycB1 is listed as -10.48%; on CRIK, -3.77%; on PKD3, 2.18%; on MRCKβ, 0.61%; on PYK2 it was 7.26%.

Turning to `C=CC(=O)N1CCC[C@@H](n2nc(-c3ccc(Oc4ccccc4)cc3)c3c(N)ncnc32)C1` [ibrutinib], the “Percentage inhibition” value at SRPK2 is listed as 3.01%; on HIPK1 it was 4.26%; at TXK, 98.38%; on CaMK2α, -1.35%; on NEK6, 0.77%; at PKCζ, 10.28%. Besides, the “Percentage inhibition” value is reported as -1.03% on CDC2/CycB1; -0.17% on CRIK; 5.48% at PKD3; -7.55% at MRCKβ; 3.37% at PYK2.

Regarding `O=C(c1ccc(Oc2ccccc2)cc1Cl)c1c[nH]c2ncnc(N[C@@H]3CC[C@@H](CO)OC3)c12` [nemtabrutinib], the “Percentage inhibition” value on SRPK2 was 1.38%; at HIPK1, 2.16%; at TXK, 97.01%; at CaMK2α, 2.91%; at NEK6, -0.80%; on PKCζ, -0.78%. Further, the “Percentage inhibition” value at CDC2/CycB1 is given as -7.65%; on CRIK, -5.26%; at PKD3, 16.29%; on MRCKβ, -5.25%; on PYK2 it was 100.08%.

`C=CC(=O)N1CCC([C@@H]2CCNc3c(C(N)=O)c(-c4ccc(Oc5ccccc5)cc4)nn32)CC1` [zanubrutinib]: the figures for the “Percentage inhibition” value on TXK and at PYK2 were 89.43% and 16.35%, respectively.

For the origin of these results see PMC12586182 (Frontiers in Oncology, 2025).
